The values below are quoted from earlier work in patent US7030094B2, “Immunostimulant compositions comprising an aminoalkyl glucosaminide phosphate and QS-21” (priority 2002, dated 2006).

Like-named read-outs stand apart in the source and are kept apart here.

Series [1] deals with sheep red blood cells.

In the case of QS-21, the critical micellar concentration is, setting by setting: (in phosphate buffered saline) ~0.02 % (w/v); (in water) “about 0.03 % (w/v)”. Besides, the “concentration causing hemolysis of sheep red blood cells” value in series [1] was ≥ 25000 ng/mL.
